Measured values reported in patent publication US20110039825A1, “LIGANDS OF ALPHA-ADRENOCEPTORS, DOPAMINE, HISTAMINE, IMIDAZOLINE AND SEROTONIN RECEPTORS AND THEIR USE” (Alla Chem, LLC, priority 2007, published 2011).

How the values were obtained:
[1] = tested on: imidazoline receptor I2; assay: radioligand binding to imidazoline receptor I2 ([3H] Idazoxan); design: species or system rat; conditions: 10 μM ligand
Experimental: Determination of investigated compounds' binding to imidazoline I2 receptor is carried out according to the method described in [Brown C M, MacKinnon A C, McGrath J C, Spedding M and Kilpatrick A T, a2-Adrenoceptor subtypes and imidazoline-like binding in the rat brain. Br J. Pharmacol. 99:803-809, 1990]. […] Idazoxan is used as positive control.

[2] = biological target: T1, recombinant human 5-HT2B receptor (Homo sapiens, UniProt P41595); assay: radioligand binding to serotonin receptor 5-HT2B ([3H] Lysergic acid diethylamide); conditions: 10 μM ligand
T1 construct: expressed in transfected cells; host or cells: CHO-K1
Experimental: Screening of the disclosed compounds for potential ability to interact with serotonin receptor 5-HT2A is carried out by method of radioligand binding. For this purpose membrane species are prepared from CHO-K1 cells comprising recombinant human 5-HT2B receptor by homogenization of recombinant cells in glass homogenizer with the subsequent separation of plasmatic membranes from cell nuclei, mitochondrias and cell wreckages by differential centrifugation. […] After incubation the samples are filtered in vacuo on glass-microfiber filters G/F (Millipor, USA), filters are washed three times with cold solution of medium and radioactivity is measured by scintillation counter MicroBeta 340 (Perkin Elmer, USA). […] Ketanserin is used as positive control. The tested compounds' binding to the receptor is determined by their ability to displace the radioligand and is expressed in percent of displacement (% I). Values of % I are calculated according to the following equation:
wherein: TA—is the overall radioactivity in the presence of radioligand only, CA—is the radioactivity in the presence of radioligand and tested compound and NA—is the radioactivity in the presence of radioligand and Serotonin (10 μM).

[3] = biological target: T2, recombinant human 5-HT2C receptor (Homo sapiens, UniProt P28335); assay: radioligand binding to serotonin receptor 5-HT2C ([3H] Mesulergine); conditions: for 5-HT2C % inhibition: 10 μM ligand
T2 construct: expressed in transfected cells; host or cells: CHO-K1
T2 sequence (P28335 33-458): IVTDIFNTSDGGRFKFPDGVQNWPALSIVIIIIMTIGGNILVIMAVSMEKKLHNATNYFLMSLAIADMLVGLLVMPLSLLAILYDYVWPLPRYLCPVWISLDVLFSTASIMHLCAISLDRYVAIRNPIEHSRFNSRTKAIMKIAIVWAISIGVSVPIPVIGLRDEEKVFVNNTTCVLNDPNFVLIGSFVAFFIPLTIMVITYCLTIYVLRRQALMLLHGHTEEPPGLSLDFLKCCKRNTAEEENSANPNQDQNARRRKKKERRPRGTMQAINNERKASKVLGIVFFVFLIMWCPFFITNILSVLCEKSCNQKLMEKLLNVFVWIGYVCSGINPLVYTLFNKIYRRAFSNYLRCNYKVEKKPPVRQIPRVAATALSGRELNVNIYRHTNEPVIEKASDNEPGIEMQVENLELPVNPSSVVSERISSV
Description: J. Neurochem. 69: 1449-1458, 1997]. […] SB242084 is used as positive control.

[4] = biological target: T3, human α2A receptor (Homo sapiens, UniProt P08913); assay: radioligand binding to adrenergic receptor α2A ([3H] MK-912)
T3 construct: expressed in transfected cells; host or cells: Sf9
T3 sequence (P08913 1-465): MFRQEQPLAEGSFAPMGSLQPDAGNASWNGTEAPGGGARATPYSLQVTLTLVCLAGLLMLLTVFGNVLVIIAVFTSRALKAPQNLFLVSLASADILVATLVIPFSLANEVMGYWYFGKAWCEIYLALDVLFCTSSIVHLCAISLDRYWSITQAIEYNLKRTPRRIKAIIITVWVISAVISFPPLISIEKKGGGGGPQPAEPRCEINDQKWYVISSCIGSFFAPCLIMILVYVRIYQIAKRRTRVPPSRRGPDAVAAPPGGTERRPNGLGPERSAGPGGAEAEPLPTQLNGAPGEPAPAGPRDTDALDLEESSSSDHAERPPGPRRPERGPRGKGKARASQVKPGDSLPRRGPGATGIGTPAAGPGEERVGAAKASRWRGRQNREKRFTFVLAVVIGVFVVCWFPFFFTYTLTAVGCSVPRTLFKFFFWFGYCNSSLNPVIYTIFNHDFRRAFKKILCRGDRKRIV
Description: J Pharmacol ExpTher. […] Yohimbine is used as positive control.

[5] = biological target: T4, human α1D receptor (Homo sapiens, UniProt P25100); assay: radioligand binding to adrenergic receptor α1D ([3H] Prazosin)
T4 construct: expressed in transfected cells; host or cells: HEK-293
T4 sequence (P25100 1-572): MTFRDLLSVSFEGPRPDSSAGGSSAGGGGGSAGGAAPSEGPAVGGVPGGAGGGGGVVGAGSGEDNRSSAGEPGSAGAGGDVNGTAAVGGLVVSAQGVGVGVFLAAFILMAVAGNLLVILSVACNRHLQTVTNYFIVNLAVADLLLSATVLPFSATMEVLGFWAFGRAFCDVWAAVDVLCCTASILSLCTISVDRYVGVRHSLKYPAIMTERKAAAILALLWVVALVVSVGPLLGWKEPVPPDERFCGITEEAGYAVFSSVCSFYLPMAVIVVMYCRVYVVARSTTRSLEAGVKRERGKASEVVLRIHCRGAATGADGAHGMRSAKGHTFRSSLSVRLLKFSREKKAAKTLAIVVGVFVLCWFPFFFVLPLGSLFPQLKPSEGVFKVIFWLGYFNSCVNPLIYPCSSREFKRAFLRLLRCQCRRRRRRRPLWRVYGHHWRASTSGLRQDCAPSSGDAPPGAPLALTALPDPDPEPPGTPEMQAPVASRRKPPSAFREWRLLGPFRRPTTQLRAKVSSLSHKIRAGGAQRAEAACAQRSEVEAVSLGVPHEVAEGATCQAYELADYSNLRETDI
Description: 6-C. […] For this purpose sDNA of human α1D receptor is expressed in HEK-293 cells, as it was described in [T L Theroux, T A Esbenshade, R D Peavy and K P Minneman. Coupling efficiencies of human alpha 1-adrenergic receptor subtypes: titration of receptor density and responsiveness with inducible and repressible expression vectors. Mol. Pharmacol.; 50: 1376-1387, 1996]. […] Prazosin is used as positive control.

[6] = biological target: T5, adrenergic receptor α1A (Rattus norvegicus, UniProt P43140); assay: radioligand binding to adrenergic receptor α1A ([3H] Prazosin)
T5 construct: membrane species from rat submaxillary glands (rat of Wistar breed) are prepared; from tissue; host or cells: rat (Wistar) submaxillary gland membranes
T5 sequence (P43140 1-466): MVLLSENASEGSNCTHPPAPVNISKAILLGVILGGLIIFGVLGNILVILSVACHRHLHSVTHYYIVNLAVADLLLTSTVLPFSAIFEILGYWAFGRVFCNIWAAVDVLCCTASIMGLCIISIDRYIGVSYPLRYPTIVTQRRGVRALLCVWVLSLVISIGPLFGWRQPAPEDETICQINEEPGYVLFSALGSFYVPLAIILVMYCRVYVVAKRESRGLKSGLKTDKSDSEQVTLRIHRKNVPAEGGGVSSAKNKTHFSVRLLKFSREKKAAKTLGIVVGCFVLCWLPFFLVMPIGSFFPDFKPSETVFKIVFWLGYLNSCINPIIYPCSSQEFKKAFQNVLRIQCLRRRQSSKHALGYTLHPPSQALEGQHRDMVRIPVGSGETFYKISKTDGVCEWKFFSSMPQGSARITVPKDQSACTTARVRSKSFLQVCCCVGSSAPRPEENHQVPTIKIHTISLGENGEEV
Experimental: Determination of investigated compounds' binding to α1A receptor was carried out according to the method described in [Michel A D, Loury D N and Whiting R l. Identification of a single α1A-adrenoceptor corresponding to the α1A-subtype in rat submaxillary gland. Br J. Pharmacol. 98:883-889, 1989]. […] Prazosin is used as positive control.

[7] = biological target: T6, adrenergic receptor α1B (Rattus norvegicus, UniProt P15823); assay: radioligand binding to adrenergic receptor α1B ([3H] Prazosin)
T6 construct: membrane species from rat liver (rat of Wistar breed) are prepared; from tissue; host or cells: rat (Wistar) liver membranes
T6 sequence (P15823 1-515): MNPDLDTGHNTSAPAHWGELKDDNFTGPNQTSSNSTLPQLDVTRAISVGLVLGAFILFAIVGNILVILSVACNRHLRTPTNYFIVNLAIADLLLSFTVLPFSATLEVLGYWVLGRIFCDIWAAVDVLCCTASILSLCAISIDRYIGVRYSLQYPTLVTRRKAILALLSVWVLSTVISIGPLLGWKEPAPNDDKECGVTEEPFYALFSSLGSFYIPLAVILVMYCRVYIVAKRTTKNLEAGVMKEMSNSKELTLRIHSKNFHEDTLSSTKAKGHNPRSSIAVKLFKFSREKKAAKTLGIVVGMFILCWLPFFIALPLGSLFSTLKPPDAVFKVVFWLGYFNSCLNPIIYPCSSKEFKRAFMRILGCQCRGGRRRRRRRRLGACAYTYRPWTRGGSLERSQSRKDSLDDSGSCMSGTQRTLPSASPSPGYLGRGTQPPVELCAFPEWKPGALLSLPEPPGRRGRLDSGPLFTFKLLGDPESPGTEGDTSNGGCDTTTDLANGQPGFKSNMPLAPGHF
Description: Species heterogeneity of hepatic α1A-, α1B-, and α1C-subtypes. Biochem Biophys Res Commun. 186:760-7676 1992]. […] Prazosin is used as positive control.

[8] = biological target: T7, human 5-HT7 receptor (Homo sapiens, UniProt P34969); assay: radioligand binding to serotonin receptor 5-HT7 ([3H] Lysergic acid diethylamide); conditions: 10 μM ligand
T7 construct: expressed in transfected cells; host or cells: CHO
Description: For this purpose sDNA of human 5-HT7 receptor is expressed in CHO cells as it was described in [Shen Y, Monsma F J Jr, Metcalf M A, Jose P A, Hamblin M W, and Sibley DR. […] J. Biol. Chem. 1993, 268, 18200-18204]. […] J. Pharmacol. Exp. Ther. 1994, 268:1403-1410]. […] Methiothepin is used as positive control.

[9] = biological target: T8, recombinant human 5-HT6 receptor (Homo sapiens, UniProt P50406); assay: radioligand binding to serotonin receptor 5-HT6 ([3H] Lysergic acid diethylamide); conditions: for 5-HT6 % inhibition: 10 μM ligand
T8 construct: expressed in transfected cells; host or cells: HeLa
Description: Mol. Pharmacol. 43:320-327, 1993]. […] Methiothepin is used as positive control.

[10] = biological target: T9, recombinant human 5-HT1A (Homo sapiens, UniProt P08908); assay: radioligand binding to serotonin receptor 5-HT1A ([3H] 8-OH-DPAT); conditions: for 5-HT1A % inhibition: 10 μM ligand; for inhibition at 1 µM: ligand concentration 1 μM
T9 construct: expressed in transfected cells; host or cells: CHO
T9 sequence (P08908 1-422): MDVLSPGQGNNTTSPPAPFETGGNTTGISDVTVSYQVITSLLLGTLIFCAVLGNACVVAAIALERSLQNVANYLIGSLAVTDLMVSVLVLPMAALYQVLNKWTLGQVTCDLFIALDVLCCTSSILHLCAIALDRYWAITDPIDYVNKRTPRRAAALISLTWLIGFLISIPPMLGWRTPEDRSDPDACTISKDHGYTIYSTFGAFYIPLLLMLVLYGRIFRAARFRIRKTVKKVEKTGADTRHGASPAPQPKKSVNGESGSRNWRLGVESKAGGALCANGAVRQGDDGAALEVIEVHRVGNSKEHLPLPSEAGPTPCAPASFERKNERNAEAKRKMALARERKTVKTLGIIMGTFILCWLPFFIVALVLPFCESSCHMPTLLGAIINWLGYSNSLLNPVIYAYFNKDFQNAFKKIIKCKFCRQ
Description: J Pharmacol Exp Ther. 306(1): 301-309, 2003]. […] Metergoline is used as positive control.

T1 sequence (P41595 whole entry): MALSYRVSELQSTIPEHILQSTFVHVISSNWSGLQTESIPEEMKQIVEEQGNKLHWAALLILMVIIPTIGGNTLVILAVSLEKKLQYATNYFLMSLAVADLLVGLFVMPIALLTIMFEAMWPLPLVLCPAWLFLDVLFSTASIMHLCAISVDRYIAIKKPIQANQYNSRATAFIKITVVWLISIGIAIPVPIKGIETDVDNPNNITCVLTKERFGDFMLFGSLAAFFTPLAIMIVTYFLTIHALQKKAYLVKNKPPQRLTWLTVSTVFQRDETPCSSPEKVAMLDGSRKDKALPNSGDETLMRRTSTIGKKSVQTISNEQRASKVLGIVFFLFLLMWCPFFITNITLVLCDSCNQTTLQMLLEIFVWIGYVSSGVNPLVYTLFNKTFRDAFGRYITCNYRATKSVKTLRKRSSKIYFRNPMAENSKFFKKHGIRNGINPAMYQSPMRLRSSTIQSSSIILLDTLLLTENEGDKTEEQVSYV
T7 sequence (P34969 whole entry): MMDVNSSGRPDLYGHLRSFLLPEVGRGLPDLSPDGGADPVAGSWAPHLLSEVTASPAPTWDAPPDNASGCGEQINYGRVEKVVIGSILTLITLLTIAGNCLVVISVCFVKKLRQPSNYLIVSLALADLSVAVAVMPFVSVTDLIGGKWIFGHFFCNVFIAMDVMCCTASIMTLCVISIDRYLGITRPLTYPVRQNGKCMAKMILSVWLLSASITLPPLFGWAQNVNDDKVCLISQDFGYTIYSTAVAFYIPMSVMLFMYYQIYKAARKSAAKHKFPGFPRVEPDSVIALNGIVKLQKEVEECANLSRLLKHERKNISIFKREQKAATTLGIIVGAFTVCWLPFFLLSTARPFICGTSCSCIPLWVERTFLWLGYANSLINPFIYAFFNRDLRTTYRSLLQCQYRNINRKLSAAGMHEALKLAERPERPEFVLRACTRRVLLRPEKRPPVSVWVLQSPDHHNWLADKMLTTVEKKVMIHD
T8 sequence (P50406 whole entry): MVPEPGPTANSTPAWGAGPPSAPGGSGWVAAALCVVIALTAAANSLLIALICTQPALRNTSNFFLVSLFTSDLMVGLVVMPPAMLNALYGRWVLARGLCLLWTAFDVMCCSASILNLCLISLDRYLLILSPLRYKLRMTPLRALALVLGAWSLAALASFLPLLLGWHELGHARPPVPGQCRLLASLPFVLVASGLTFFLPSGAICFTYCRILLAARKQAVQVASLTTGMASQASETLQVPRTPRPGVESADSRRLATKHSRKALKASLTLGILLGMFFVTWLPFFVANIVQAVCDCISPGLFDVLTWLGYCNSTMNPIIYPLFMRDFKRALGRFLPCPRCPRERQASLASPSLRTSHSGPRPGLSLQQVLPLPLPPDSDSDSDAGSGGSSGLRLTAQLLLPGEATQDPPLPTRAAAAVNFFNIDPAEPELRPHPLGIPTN

## Cc1ccc2c(c1)[C@@H]1CN(C)CCC[C@@H]1N2CCc1cccnc1.Cl.Cl.Cl (relative stereo) [1.6.1(1)•3HCl]
[1]
  imidazoline I2 receptor % inhibition: 80%

## CN1CCc2c(c3cc(F)ccc3n2C#Cc2ccccc2)C1 [1.1(2)]
[2]
  5-HT2B % inhibition: 92%
[3]
  5-HT2C % inhibition: 100%

## Cc1ccc(CCn2c3c(c4cc(C)ccc42)CN(C)CC3)cc1 [1.1.2(1-3), 2,8-dimethyl-5-[2-(4-methylphenyl)-ethyl]-1,2,3,4-tetrahydro-1H-pyrido[4,3-b]indole]
[4]
  IC50: 4.72 nM
  Ki: 1.77 nM
[5]
  IC50: 61.5 nM
  Ki: 30.2 nM
[6]
  IC50: 46.7 nM
  Ki: 18.9 nM
[7]
  IC50: 17 nM
  Ki: 9.4 nM

## CN1CCc2c(c3cc(C(F)(F)F)ccc3n2CCc2ccccc2)C1.Cl [1.1.2(1-7)•HCl, 2-methyl-8-trifluoromethyl-5-phenethyl-1,2,3,4-tetrahydro-1H-pyrido[4,3-b]indole]
[8]
  5-HT7 % inhibition: 94%

## CN1CCc2c(c3cc(F)ccc3n2CC(O)c2ccccc2)C1 (centres unmarked) [1.1.2(1-9)]
[2]
  5-HT2B % inhibition: 50%
[3]
  5-HT2C % inhibition: 89%

## Cc1ccc2c(c1)c1c(n2CC(O)c2ccccc2)CCN(C)C1 (centres unmarked) [1.1.2(1-10), 2,8-dimethyl-5-[(2-phenyl-2-hydroxy)ethyl]-1,2,3,4-tetrahydro-1H-pyrido[4,3-b]indole]
[2]
  5-HT2B % inhibition: 79%
[3]
  5-HT2C % inhibition: 96%

## COc1ccc(CCn2c3c(c4cc(C)ccc42)CN(C)CC3)cc1.Cl [1.1.2(1-14)•HCl]
[9]
  5-HT6 % inhibition: 108%
[10]
  5-HT1A % inhibition: 57%
[8]
  5-HT7 % inhibition: 100%

## Cc1ccc2c(c1)c1c(n2CCc2ccc(F)cc2)CCN(C)C1.Cl [1.1.2(1-16)•HCl]
[9]
  5-HT6 % inhibition: 103%
[10]
  5-HT1A % inhibition: 37%
[8]
  5-HT7 % inhibition: 95%

## Cc1ccc2c(c1)c1c(n2CCc2ccc(C(F)(F)F)cc2)CCN(C)C1.Cl [1.1.2(1-18)•HCl]
[10]
  5-HT1A % inhibition: 53%
[8]
  5-HT7 % inhibition: 103%

## Cc1ccc2c(c1)c1c(n2CCc2ccc(C)nc2)CCCN(C)C1 [1.2.2(4-1)]
[1]
  imidazoline I2 receptor % inhibition: 80%

## Cc1ccc(CCn2c3c(c4cc(F)ccc42)CN(C)CCC3)cn1 [1.2.2(4-2)•2HCl]
[10]
  inhibition at 1 µM: 31%

## Cc1ccc2c(c1)c1c(n2CCc2ccncc2)CCCN(C)C1 [1.2.2(5-2)]
[9]; ligand concentration 1 μM, read-out: 5-HT6 % inhibition
  inhibition at 1 µM: 84%
[4]; 10 μM ligand
  α-Adrenoceptor α2A, % inhibition: 74%
[10]
  inhibition at 1 µM: 13%
[3]; ligand concentration 1 μM
  inhibition at 1 µM: 92%

## CN1CCc2c(c3cc(F)ccc3n2CCCc2ccccc2)C1.Cl [1.3.3(8)•HCl]
[10]
  5-HT1A % inhibition: −4%
[8]
  5-HT7 % inhibition: 83%

## CN1CCc2c(c3cc(F)ccc3n2Cc2ccccc2)C1.Cl [1.9(3)•HCl]
[8]
  5-HT7 % inhibition: 81%

## Cc1ccc2c(c1)c1c(n2Cc2ccccc2)CCCN(C)C1.Cl [1.10(4)•HCl]
[10]
  5-HT1A % inhibition: 19%
[8]
  5-HT7 % inhibition: 75%
